Usually IC50 stands for the concentration needed to halve the response being measured. In general, GI50 refers to the concentration giving 50% growth inhibition. As a reminder, the half-life is how long it takes for the measured level to halve.

From ChEMBL document CHEMBL5236548, “Marine Natural Products: A Potential Source of Anti-hepatocellular Carcinoma Drugs” (J Med Chem, 2021) come the findings set out here.

In data set [1] the test system is Bel-7402. Description: Cytotoxicity against human 7402 hepatoma cells incubated for 24 hrs by MTT assay. It is filed as functional, cell-based. The conditions noted are these: Bel-7402, 24 h. For orientation: Tetrazolium dyes change colour on reduction, which living cells bring about.
For the next data set, the system named is MDA-MB-435. The data set can be described thus: Cytotoxicity against human MDA-MB-435 cells incubated for 24 hrs by MTT assay. It is filed as functional, cell-based. To be noted: MDA-MB-435, 24 h.
Data set [2] has as its system HepG2. Description: Antimigratory activity against human HepG2 cells assessed as reduction in cell migration by cell migration assay. The class given is functional, cell-based.
Data set [3] concerns HepG2. The data set can be described thus: Antiproliferative activity against human HepG2 cells incubated for 72 hrs by MTT assay. It is filed as functional, cell-based. The conditions noted are these: HepG2, 72 h.
For data set [4], the system named is HepG2. Description: Cytotoxicity against human HepG2 cells by SRB assay. It is filed as functional, cell-based. A general note: In SRB staining, fixed cells bind dye roughly in proportion to their protein.
The test system of data set [5] is SMMC-7721. Description: Cytotoxicity against human SMMC-7721 cells by SRB assay. It is filed as functional, cell-based.
A further data set concerns PLC-PRF-5. The data set can be described thus: Cytotoxicity against human PLC-PRF-5 cells by SRB assay. It is filed as functional, cell-based.
The test system of data set [6] is HepG2. Description: Antiproliferative activity against doxorubicin sensitive human HepG2 cells assessed as decrease in cell proliferation at 50 uM incubated for 24 hrs by MTT assay relative to control. It is filed as functional. Also on record: scale not given: the % may be the effect or the level left.
The subject of data set [7] is HepG2. Description: Antiproliferative activity against doxorubicin resistant human HepG2 cells at 50 uM incubated for 24 hrs by MTT assay relative to control. It is filed as functional.
Data set [8] concerns HepG2. The data set can be described thus: Cytotoxicity against human HepG2 cells incubated for 48 hrs by MTT assay. It is filed as functional, cell-based. The conditions noted are these: HepG2, 48 h.
Data set [9] relates to HepG2. The data set can be described thus: Cytotoxicity against human HepG2 cells by MTT assay. The class given is functional, cell-based.
Data set [10] relates to SMMC-7721. The data set can be described thus: Antiproliferative activity against human SMMC-7721 cells measured after 48 hrs. The conditions noted are these: SMMC-7721, 48 h. The class given is functional, cell-based.
The next data set deals with SK-HEP1. Description: Antiproliferative activity against human SK-HEP1 cells assessed as cell growth inhibition by SRB method. It is filed as functional.
Data set [11] concerns HepG2. The data set can be described thus: Antiproliferative activity against human HepG2 cells assessed as cell growth inhibition by SRB method. It is filed as functional.
Data set [12] has as its system HepG2. Description: Antiproliferative activity against human HepG2 cells incubated for 72 hrs. The class given is functional, cell-based. The conditions noted are these: HepG2, 72 h.
Data set [13] concerns HepG2. Description: Anticancer activity against human HepG2 cells by MTT assay. It is filed as functional, cell-based.
The test system of data set [14] is SMMC-7721. Description: Cytotoxicity against human SMMC-7721 cells incubated for 72 hrs by SRB assay. It is filed as functional, cell-based. The conditions noted are these: SMMC-7721, 72 h.
The subject of data set [15] is Bel-7402. Description: Cytotoxicity against human Bel-7402 cells incubated for 72 hrs by SRB assay. The class given is functional, cell-based. To be noted: Bel-7402, 72 h.
For data set [16], the system named is H22. Description: Antitumor activity against […] cells xenografted in mouse assessed as reduction in tumor volume at 5 mg/kg, ip measured after 21 days by caliper method relative to control. To be noted: time 21 day. Also noted: scale not given: the % may be the effect or the level left. The class given is functional.
Data set [17] concerns H22. The data set can be described thus: Antitumor activity against […] cells xenografted in mouse assessed as reduction in tumor volume at 15 mg/kg, ip measured after 21 days by caliper method relative to control. The class given is functional. Also noted: scale not given: the % may be the effect or the level left. To be noted: time 21 day.
For data set [18], the system named is H22. The data set can be described thus: Antitumor activity against […] cells xenografted in mouse assessed as reduction in tumor volume at 45 mg/kg, ip measured after 21 days by caliper method relative to control. It is filed as functional. Also noted: scale not given: the % may be the effect or the level left. To be noted: time 21 day. For orientation: A xenograft is tissue or cells of one species grown in another, often human tumour cells in immunodeficient mice.

Data set [19] concerns Bel-7402. Description: Antitumor activity against human Bel-7402 cells xenografted in mouse assessed as reduction in tumor volume at 7 mg/kg, ip administered daily for 21 days by caliper method relative to control. It is filed as functional. Also on record: scale not given: the % may be the effect or the level left. The conditions noted are these: time 21 day.
Data set [20] has as its system Bel-7402. The data set can be described thus: Antitumor activity against human Bel-7402 cells xenografted in mouse assessed as reduction in tumor volume at 14 mg/kg, ip administered daily for 21 days by caliper method relative to control. It is filed as functional. Also on record: scale not given: the % may be the effect or the level left. The conditions noted are these: time 21 day.

The test system of data set [21] is Bel-7402. Description: Antitumor activity against human Bel-7402 cells xenografted in mouse assessed as reduction in tumor volume at 28 mg/kg, ip administered daily for 21 days by caliper method relative to control. To be noted: time 21 day. The class given is functional. Also on record: scale not given: the % may be the effect or the level left.
Data set [22] is described as follows: Half life in Kunming mouse at 15 to 30 mg/kg measured upto 240 mins. It is filed as ADME, organism-based. To be noted: in vivo, dose 15-30 mg/kg.
Data set [23] concerns HepG2. The data set can be described thus: Anticancer activity against human HepG2 cells by SRB assay. It is filed as functional, cell-based.

Consider `COC(=O)N[C@H]1[C@@H](C)O[C@@H](O[C@H]2C/C=C(\C)[C@@H]3C=C[C@@H]4[C@@H](O[C@H]5C[C@@H](O[C@H]6C[C@@H](O)[C@@H](O[C@@H]7C[C@@H](O)[C@@H](OC)[C@H](C)O7)[C@H](C)O6)[C@@H](O)[C@H](C)O5)[C@H](C)C[C@H](C)[C@H]4[C@]3(C)/C(O)=C3\C(=O)O[C@]4(C[C@@H](C)C(CO)=C[C@H]4/C=C/2C)C3=O)C[C@]1(C)[N+](=O)[O-]`, for which the IC50 with Bel-7402 [1] came out at 506 nM; in the data set on MDA-MB-435, 52100 nM.

`CC[C@H]1C=CCC[C@@]2(C[C@@H]3CC[C@]4(O)[C@H](C(=O)OCCCCCCCCCCCCCCCC(=O)N(CCCN)C[C@@H](O)CCN)[C@]5(CCC[C@@H](C)O5)NC(=N2)N34)O1`: the IC50 with HepG2 [2] is 180 nM.

The compound `Cc1cc2nc([C@@H]3C4C5CCC([C@H](C)CCCC(C)C)[C@@]5(C)CCC4[C@@]4(C)CC[C@H](O)C[C@@]34O)[nH]c2cc1C` (stereo partly specified) came in with an IC50 in the data set on HepG2 [3] of 4500 nM.

Regarding `C[C@@H]1O[C@@H](O[C@H]2CC[C@H](O[C@@]3(C)CC(=O)[C@]4(O)C5=C(C=C[C@]4(O)C3)C(=O)c3c(ccc([C@H]4C[C@H]6O[C@H]7CC(=O)[C@H](C)O[C@@H]7O[C@@H]6[C@@H](C)O4)c3O)C5=O)O[C@H]2C)C=CC1=O`, the IC50 with HepG2 [4] was 135 nM; in the data set on SMMC-7721 [5], 33 nM; in the data set on PLC-PRF-5, 244 nM.

Consider `C/C=C1/C(=C\c2[nH]c(/C=C3N=C(/C=C4/NC(=O)C(CC)=C4C)C(C)=C/3CCC(=O)O)c(CCC(=O)O)c2C)NC(=O)C1C` (stereo unspecified), for which the Activity with HepG2 [6] was 40%; in the data set on HepG2 [7], 50%.

Take `C[C@]1(O)Cc2c(O)c3c(c(O)c2C[C@H]1O)C(=O)C1=C(SCCS1)C3=O`: it took 1980 nM to reach half-maximal inhibition in the data set on HepG2 [8] (IC50).

In turn, `C/C=C(\N=C=S)C(=O)O[C@H]1[C@@H](OC(C)=O)[C@@H](O)[C@H]([C@@]2(O)CC(=O)C(N)=C(C(=O)O)C2=O)O[C@@H]1C` returned an IC50 with HepG2 [9] of 4300 nM.

For `CCCCSC1=C(SCCCC)C(=O)c2c(O)c3c(c(O)c2C1=O)C[C@@H](O)[C@@](C)(O)C3`, the IC50 in the data set with HepG2 [8] came to 5040 nM.

`O=c1[nH]cc(F)c(=O)[nH]1` [FLUOROURACIL] showed an IC50 in the data set on SMMC-7721 [10] of 20000 nM.

`COC1=CC[C@@H]([C@@H](C)/C=C(C)/C=C\C=C/C(=O)N[C@H](C(=O)N/C=C\C[C@H](C/C=C(\C)Cl)OC(N)=O)C(C)(C)C)OC1=O`: the GI50 in the data set with SK-HEP1 is 0.278 nM; with HepG2 [11], 0.752 nM.

Compound `CC[C@H]1C=CCC[C@@]2(C[C@@H]3CC[C@]4(O)[C@H](C(=O)OCCCCCCCCCCCCCCCCC(=O)N(CCCN)C[C@@H](O)CCN)[C@]5(CCC[C@@H](C)O5)NC(=N2)N34)O1` yielded an IC50 in the data set on HepG2 [12] of 2110 nM.

Take `CC[C@H]1C=CCC[C@@]2(C[C@@H]3CCC4[C@H](C(=O)OCCCCCCCCCCCCCCCC(=O)N(CCCN)C[C@@H](O)CCN)[C@]5(CCC[C@@H](C)O5)NC(=N2)N43)O1` (stereo partly specified): the IC50 in the data set on HepG2 [12] was 2660 nM.

`CO[C@@]12[C@H](COC(N)=O)C3=C(C(=O)C(C)=C(N)C3=O)N1C[C@@H]1N[C@@H]12` [MITOMYCIN] registered an IC50 in the data set on HepG2 [13] of 130 nM.

As for `Cc1cc(O)cc(O)c1OC1C(=O)Oc2c(C)cc(O)c3c2C1c1cc(O)cc(O)c1C3=O` (stereo unspecified), the IC50 is below 4000 nM with SMMC-7721 [14] and below 6000 nM with Bel-7402 [15]. Besides, the Activity in the data set on H22 [16] was found to be 55%; with H22 [17], 62%; in the data set with H22 [18], 66%; with Bel-7402 [19] it was 48.8%; with Bel-7402 [20], 51.2%; in the data set with Bel-7402 [21] it was 59.9%. This compound also returned a half-life in data set [22] of 40 min.

`CC1=CC[C@@H]2[C@@H](CC[C@@]2(C)O)C(C)(C)[C@H]1CC[C@@H]1[C@@]2(C)CC[C@@H](O)C(C)(C)O[C@@H]2CC[C@]1(C)O` had an IC50 in the data set on HepG2 [23] of 17200 nM.

`CC(=O)O[C@H]1CC[C@]2(C)C3CC[C@@]4(C)C(CCC4[C@H](C)CCCC(C)C)C3[C@@H](c3nc4ccccc4[nH]3)[C@]2(O)C1` (stereo partly specified) gave an IC50 with HepG2 [3] of 4200 nM.

`COC(=O)N[C@H]1[C@@H](C)O[C@@H](O[C@H]2C/C=C(\C)[C@@H]3C=C[C@@H]4[C@@H](O[C@H]5C[C@@H](O[C@H]6C[C@@H](O)[C@@H](O[C@@H]7C[C@@H](O)[C@@H](OC)[C@H](C)O7)[C@H](C)O6)[C@@H](O)[C@H](C)O5)[C@H](C)C[C@H](C)[C@H]4[C@]3(C)/C(O)=C3\C(=O)O[C@]4(C[C@@H](C)C(CO)=C[C@H]4/C=C/2C)C3=O)C[C@]1(C)N`: the IC50 was 625000 nM with Bel-7402 [1] and 6480 nM in the data set with MDA-MB-435.
